What was measured:
human neutrophils [1] = assay: Effect of signaling pathway inhibitors on directional neutrophil migration in IL-8 gradients (microfluidic device); format: cell-based
Text: (§1) Microfluidic Migration Assay and Timelapse Microscopy: Neutrophils (1×10^3 cells) were placed uniformly across the migration channel and allowed to migrate under a linear gradient of human Interleukin-8 (72 a.a.; PeproTech, Rocky Hill, N.J.) in IMDM with 0.5% (w/v) FCS flowing at 0.1 mm/sec. […] Brightfield images were taken every 30 seconds using a C4742-95 Hamamatsu digital camera (Hamamatsu, Japan) controlled by IPLab 3.6.1 (Scanalytics, Fairfax, Va.). Cell movement was always observed at a set point along the migration channel. Gradients were also calibrated at this set point. Migration was quantified for all cells across the gradient.
Signaling Pathway Inhibitors: Cells were treated with pertussis toxin (100 ng/mL; 30 minutes at 37° C.), wortmannin (1 μM, 10 μM; 20 minutes at 37° C., 8-Br-cAMP (1 mM; 15 minutes at room temperature), 8-Br-cGMP (1 mM; 15 minutes at room temperature) (Sigma-Aldrich), or the CXCR2 non-peptide antagonist, SB225002 (1 pM, 100 pM, 1 nM, or 1 μM for 15 minutes at 37° C.; Calbiochem, Calif.). Immediately after treatment cells were seeded in migration channel of the microfluidic device and allowed to migrate as described above.
Since receptor occupancy is known to play a role in directional decision making and gradient sensing in the context of chemotaxing eukaryotic cells, it was postulated that chemokine receptor occupancy by a chemokine might also play a critical role in the decision of a cell to move up or down a chemokine gradient. Thus, a SB25002, the specific non-peptide antagonist of the IL-8 receptor, CXCR2 was utilized to examine this postulate. Neutrophils were pretreated with SB225002 at concentrations between 1 pM and 1 μM and then exposed to 0 to 1.2 μM gradients of IL-8 in microfabricated devices as described above. Videos of cell migration were analysed using MetaMorph and MathLab software to generate normalized angular frequencies determined for cells migrating in each of the three sectors of the gradient. The absence of inhibitor generates a normalized angular frequency of 1.0 whereas inhibition of fugetactic or chemotactic angular frequencies results in a normalized frequency of <1.0 and augmentation of either directional response results in a value greater than 1. This analysis allows to precisely quantitate the effect of a given concentration of inhibitor on the directional decision of the cell to move up or down a gradient. […] Furthermore, although IL-8 binds to both CXCR2 and CXCR1 on the cell surface, of the human neutrophil bi-directional signaling was evidently critically dependent on CXCR2.
It had been previously shown that the signaling pathway for chemotaxis is distinct from that for chemorepulsion or fugetaxis. […] The study of neutrophil migration in microfabricated devices allows to examine precisely the effects of these inhibitors on quantitative parameters of cell migration including the directional bias of cells in the context of precisely defined and stable chemokine gradients. Primary human neutrophils were pretreated with known inhibitors of the chemokine signal transduction pathway including pertussis toxin, wortmannin, genistein, 8-Br-cAMP and 8-Br-cGMP and then exposed to IL-8 gradients in which chemotaxis and fugetaxis were seen. The effect of the inhibitor on directional migration towards or away from the chemokine was quantitated by determining the directional motility index of cells migrating in the context of these gradients. Movement vector angles corresponding to movement up the gradient (30 to 150 degrees—see FIG. 13) were defined as chemotactic and measured movement vector angles corresponding to movement down the gradient (210 to 330 degrees—see figure) were defined as fugetactic. The directional choice of cells to move up or down a chemokine gradient were therefore compared in the presence and the absence of an inhibitor. […]

human neutrophils [2] = assay: Microfluidic migration assay of neutrophils in linear gradients of IL-8; format: cell-based
Description: Neutrophil isolation: Human whole blood was obtained from healthy volunteers by venipuncture into tubes containing sodium heparin (Becton Dickinson, San Jose, Calif.). Whole blood was centrifuged for 4 minutes at 2400 rpm and plasma was removed. Resulting pellet was resuspended in Iscove's Modified Dulbecco's Medium (IMDM; Cellgro MediaTech, Herndon, Va.) with 0.5% (w/v) fetal calf serum FCS; Cellgro MediaTech). 25 mL of suspension was layered over 10 mL Lymphocyte Separation Medium (ICN, Irvine, Calif.) and centrifuged for 40 minutes at 1600 rpm at 22° C. Supernatant was aspirated, resulting pellet was resuspended in IMDM with 0.5% (w/v) FCS and 2% (w/v) dextran (Sigma-Aldrich, St. Louis, Mo.), and red blood cells (RBC) were allowed to sediment for 30 minutes at room temperature. Supernatant was transferred into clean tube and centrifuged for 5 minutes at 2000 rpm. Supernatant was aspirated, pellet was mixed with cold ddH2O for hypotonic lysis of remaining RBCs, and transferred to IMDM with 0.5% (w/v) FCS. Isolated neutrophils were washed and resuspended in IMDM with 0.5% (w/v) FCS, determined to be 95% pure, and 99% viable by Trypan Blue exclusion.
Fabrication and Preparation of Microfluidic Linear Gradient Generator: The microfluidic linear gradient generator was fabricated in poly(dimethylsiloxane) (PDMS; Sylgard 184, Dow Corning, N.Y.) using rapid prototyping and soft lithography as described previously. Briefly, a high resolution printer was used to generate a transparency mask from a computer-aided design image file. The mask was used in contact photolithography with SU-8 photoresist (Microlithography Chemical Co., Newton Mass.) to generate a positive relief of patterned photoresist on a silicon wafer. Replicas with embossed channels were fabricated by curing PDMS prepolymer against the patterned wafer. Inlet and outlet ports for media and cell suspension were bored out of the cured PDMS replica using a sharpened syringe needle. The PDMS replica and glass substrate were placed in an oxygen plasma generator (150 mTorr, 100 W) for 1 minute. Immediately following plasma treatment, the PDMS replica and glass were placed against each other and irreversibly bonded. Polyethylene tubing (Becton Dickenson) was inserted into inlet and outlet ports to make the fluidic connections. Tubing was connected to a PHD 2000 syringe pump (Harvard Apparatus, Holliston, Mass.) to complete the setup. Hemostats were used to control flow during cell loading.
as §1, with “[…];” for “cells) were placed uniformly across the migration channel and allowed to migrate under a linear gradient of human Interleukin-8 (72 a.a.;”
Construction of Digital Videos for Quantitative Analysis: Digital videos were mad from time-lapse video microscopy file stacks or S-VHS videotapes using a combination of IPLab 3.6.1, Photoshop 6.0 (Adobe Systems, San Jose, Calif.), and Apple QuickTime Pro 5.0 (Apple Computer, Cupertino, Calif.). Migration tracking was carried out using MetaMorph 4.5 (Universal Imaging, Downington, Pa.) object tracking application, which generated tables of Cartesian coordinate data for each tracked cell.
Mathematical Analysis of Cell Migration in Linear Gradient Generator: The angular correlation function, or cosine correlation function, was calculated for each experiment. For experiments with no gradient, the correlation function decayed exponentially with increasing time interval, while the function decayed much slower, potentially by a power law, for experiments with a gradient; in all cases correlation of angles over time was increased as absolute [IL-8] increased. […]

[3] = pretreated cells, IL-8 gradients in which chemotaxis and fugetaxis were seen

O=C(Nc1ccc([N+](=O)[O-])cc1O)Nc1ccccc1Br [SB225002]
effect on neutrophil chemotaxis (normalized angular frequency) (human neutrophils [1]; 1 pM and 100 pM inhibitor, 0 to 1.2 μM gradient of IL-8): augmented | effect on neutrophil fugetaxis (normalized angular frequency) (human neutrophils [1]; 1 pM inhibitor, 0 to 1.2 μM gradient of IL-8, p=0.0037): significant inhibition | effect on neutrophil fugetaxis (normalized angular frequency) (human neutrophils [1]; 100 pM inhibitor, 0 to 1.2 μM gradient of IL-8, p=0.0210): significant inhibition | effect on neutrophil directional migration (human neutrophils [1]; gradually increasing concentrations (up to 1 μM), 0 to 1.2 μM gradient of IL-8): inhibited both fugetaxis and chemotaxis

IL-8: human Interleukin-8 (72 a.a.; PeproTech), chemokine
Persistence time of cell movement (human neutrophils [2]; IL-8 gradient in which chemotaxis is seen predominantly): 21.5 min | Persistence time of cell movement (human neutrophils [2]; IL-8 gradient in which fugetaxis is seen predominantly): 10.9 min | neutrophil migratory behaviour (human neutrophils [2]; chemokine at a uniform concentration across the migration channel): underwent chemokinesis | mean chemotropism index (MCI) (human neutrophils [2]; gradient between 0 and 12 nM): +0.32 | mean chemotropism index (MCI) (human neutrophils [2]; gradient between 0 and 120 nM): +0.39 | mean chemotropism index (MCI) (human neutrophils [2]; gradient of 0 to 1.2 μM): −0.13 | neutrophil migratory behaviour (human neutrophils [2]; gradient of 0 to 1.2, cells commencing in the central third of the gradient): underwent chemokinesis | neutrophil migratory behaviour (human neutrophils [2]; gradient of 0 to 1.2, cells in the lower third of the gradient): chemotaxed towards higher levels of the chemokine | neutrophil migratory behaviour (human neutrophils [2]; gradient of 0 to 1.2, cells originating in the upper third of the gradient): underwent fugetaxis down the gradient | neutrophil migratory behaviour (human neutrophils [2]; gradients between 0 and 12 nM and 0 and 120 nM): predominantly demonstrated chemotaxis | mean sectional MCI (human neutrophils [2]; lower segment of the 0 to 10.2 μM gradient): +0.2 | mean sectional MCI (human neutrophils [2]; middle third of the 0 to 10.2 μM gradient): −0.14 | neutrophil migratory behaviour (human neutrophils [2]; steepest gradient, 0 to 2.4 μM): underwent chemokinesis regardless of their position within the gradient | Persistence time of cell movement (human neutrophils [2]; uniform concentration of IL-8 (chemokinesis)): 4.5 min | mean chemotropism index (MCI) (human neutrophils [2]; uniform concentration of chemokine at 120 nM): −0.02 +/−0.01 | mean sectional MCI (human neutrophils [2]; upper third of the 0 to 10.2 μM gradient): −0.22

pertussis toxin
effect on neutrophil chemotaxis (angular frequency, movement up the gradient) (human neutrophils [1]; [3]): significantly inhibited | effect on neutrophil fugetaxis (angular frequency, movement down the gradient) (human neutrophils [1]; [3]): significantly inhibited

From patent US20070134657A1, “Methods and compositions relating to gradient exposed cells” (GENERAL HOSPITAL CORPORATION, THE, priority 2002, published 2007)
